Data reported in patent publication US20020192703A1, “Immunoassay reagents and methods for determination of LSD and LSD metabolites” (priority 1995, published 2002).

Experiments:
[1] = tested on: central nervous system; details: hallucinations, distortions in sensory perception, mood changes; cited from earlier work
[2] = tested on: monoclonal antibody 19A7; assay type: binding, mice; details: Concentration Added 0.5 ng/ml
Description: Cross-reactivity was tested by spiking various potential cross-reactants into human urine containing a preservative.

[3] = Urine time course after LSD administration, GC/MS; assay type: in vivo; details: human
Description: In this example, experiments were performed to better define the time course of excretion of LSD metabolites in urine, and the ability of various immunoassays to detect them.
Individuals were administered LSD, and urine samples were collected over a four-day period. The samples were assayed using the LSD enzyme-complementation immunoassay described in Examples 9 and 10 using monoclonal antibody 19A7. The samples were also measured using the DPC radioimmunoassay (“Coat-A-Count”® LSD assay, by Diagnostic Products Company) according to manufacturer's directions, and by GC/MS).
Results are shown in the following table in terms of LSD equivalents (translating the signal generated using a standard curve obtained with known concentrations of LSD).

[4] = in man; calculated; cited from earlier work

Question: Which “Oral doses that can cause central nervous system disturbances (as low as)” value [1] does the source give for `CCN(CC)C(=O)[C@@H]1C=C2c3cccc4[nH]cc(c34)C[C@H]2N(C)C1` [LSD, lysergic acid diethylamide] here?
Answer: 25 µg

Question: And the “% Cross-Reactivity” value ([2]; 100 × observed dose / concentration added)?
Answer: 100.00%

Question: And the “Concentration Observed” value ([2]; in human urine)?
Answer: 0.5 ng/mL

Question: What about the concentration at 4 h ([3]; urine sample JS U3, 4 hrs after LSD administration) of the same compound?
Answer: 0.39 ng/mL

Question: What about the concentration at 6 h ([3]; urine sample JS U4, 6 hrs after LSD administration) of the same compound?
Answer: 0.37 ng/mL

Question: What about the concentration at 8 h ([3]; urine sample JS U5, 8 hrs after LSD administration) of the same compound?
Answer: 0.38 ng/mL

Question: What about the concentration at 10 h ([3]; urine sample JS U6, 10 hrs after LSD administration) of the same compound?
Answer: 0.64 ng/mL

Question: And the concentration at 12 h ([3]; urine sample JS U7, 12 hrs after LSD administration)?
Answer: 0.52 ng/mL

Question: And the concentration at 24 h ([3]; urine sample JS U8, 24 hrs after LSD administration)?
Answer: 0.34 ng/mL

Question: And the concentration at 36 h ([3]; urine sample JS U9, 36 hrs after LSD administration)?
Answer: 0.03 ng/mL

Question: What about the concentration at 48 h ([3]; urine sample JS U10, 48 hrs after LSD administration) of the same compound?
Answer: 0.01 ng/mL

Question: What about the concentration at 60 h ([3]; urine sample JS U11, 60 hrs after LSD administration) of the same compound?
Answer: 0 ng/mL

Question: And the concentration at 72 h ([3]; urine sample JS U12, 72 hrs after LSD administration)?
Answer: 0.02 ng/mL

Question: And the concentration at 84 h ([3]; urine sample JS U13, 84 hrs after LSD administration)?
Answer: 0 ng/mL

Question: And the concentration at 98 h ([3]; urine sample JS U14, 98 hrs after LSD administration)?
Answer: 0 ng/mL

Question: What about the concentration at 2 h ([3]; urine sample SW U2, 2 hrs after LSD administration) of the same compound?
Answer: 0.33 ng/mL

Question: What about the concentration at 4 h ([3]; urine sample SW U3, 4 hrs after LSD administration) of the same compound?
Answer: 0.54 ng/mL

Question: What about the concentration at 8 h ([3]; urine sample SW U4, 8 hrs after LSD administration) of the same compound?
Answer: 0.52 ng/mL

Question: What about the concentration at 8 h ([3]; urine sample SW U5, 8 hrs after LSD administration) of the same compound?
Answer: 0.71 ng/mL

Question: What about the concentration at 10 h ([3]; urine sample SW U6, 10 hrs after LSD administration) of the same compound?
Answer: 0.76 ng/mL

Question: What about the concentration at 12 h ([3]; urine sample SW U7, 12 hrs after LSD administration) of the same compound?
Answer: 1.77 ng/mL

Question: What about the concentration at 24 h ([3]; urine sample SW U8, 24 hrs after LSD administration) of the same compound?
Answer: 1.42 ng/mL

Question: What about the concentration at 36 h ([3]; urine sample SW U9, 36 hrs after LSD administration) of the same compound?
Answer: 0.11 ng/mL

Question: And the concentration at 48 h ([3]; urine sample SW U10, 48 hrs after LSD administration)?
Answer: 0.04 ng/mL

Question: And the concentration at 60 h ([3]; urine sample SW U11, 60 hrs after LSD administration)?
Answer: 0.02 ng/mL

Question: And the concentration at 72 h ([3]; urine sample SW U12, 72 hrs after LSD administration)?
Answer: 0 ng/mL

Question: What about the concentration at 96 h ([3]; urine sample SW U14, 96 hrs after LSD administration) of the same compound?
Answer: 0.01 ng/mL

Question: What about the plasma half-life [4] of the same compound?
Answer: about 3 hours
